Assays:
[1] = system: chick dorsal root ganglia; experiment: Neurite outgrowth in chick dorsal root ganglion cultures; format: cell-based; details: for EC50: Gallus gallus, chick DRG explants, 48 h after drug treatment, read-out: ED50, Neurite Outgrowth in DRG cultures
Method: In the present work explants of chick dorsal root ganglia have been used, which are easier to employ in studies of nerve outgrowth.
Chick Dorsal Root Ganglion Cultures and Neurite Outgrowth
Dorsal root ganglia were dissected from chick embryos of ten day gestation. Whole ganglion explants were cultured on thin layer Matrigel-coated 12 well plates with Liebovitz L15 plus high glucose media supplemented with 2 mM glutamine and 10% fetal calf serum, and also containing 10 μM cytosine β-D arabinofuranoside (Ara C) at 37° C. in an environment containing 5% CO2. Twenty-four hours later, the DRGs were treated with various concentrations of nerve growth factor, immunophilin ligands or combinations of NFG plus drugs. Forty-eight hours after drug treatment, the ganglia were visualized under phase contrast or Hoffman Modulation contrast with a Zeiss Axiovert inverted microscope. Photomicrographs of the explants were made, and neurite outgrowth was quantitated. Neurites longer than the DRG diameter were counted as positive, with total number of neurites quantitated per each experimental condition. Three to four DRGs are cultured per well, and each treatment was performed in duplicate. Data from 6-10 different concentrations were used to generate dose-response curves, from which ED50 values were calculated.

rat dorsal root ganglia = details: rat DRG explants, cited from earlier work
PC12 cells = details: picomolar concentrations; cited from earlier work
[2] = system: dorsal root ganglion cells (DRGs); details: picomolar concentrations; sensory neurons; cited from earlier work
facial nerve injury = details: whole animal experiments; cited from earlier work
sciatic nerve lesions = details: whole animal experiments; cited from earlier work
[3] = system: growth-associated protein-43 (GAP43); details: cited from earlier work

## O=C(C(=O)N1CCCC[C@H]1C(=O)OC(CCCc1ccccc1)CCCc1cccnc1)c1ccccc1 (stereo partly shown) [Compound 17]
[1]
  EC50: 1 to 5 nM

## O=C(C(=O)N1CCCC[C@H]1C(=O)OC(CCCc1ccccc1)CCCc1ccccn1)c1ccccc1 (stereo partly shown) [Compound 18]
[1]
  EC50: 0.063 nM

## COc1ccc(CCC(CCCc2ccccc2)OC(=O)[C@@H]2CCCCN2C(=O)C(=O)c2ccccc2)cc1 (stereo partly shown) [Compound 19]
[1]
  EC50: 10 to 20 nM

## O=C(C(=O)N1CCCC[C@H]1C(=O)OC(CCCc1ccccc1)CCCc1ccccc1)c1ccccc1 [Compound 20]
[1]
  EC50: 0.0044 nM

## COc1cc(C(=O)C(=O)N2CCCC[C@H]2C(=O)OC(CCCc2ccccc2)CCCc2ccccc2)cc(OC)c1OC [Compound 21]
[1]; FIG. 3, cultured sensory neurons
  dose-dependence of neurotrophic effects in neuronal cultures: dose-dependent neurotrophic effects
[1]
  EC50: 0.61 nM

## COc1cc(C(=O)C(=O)N2CCCC[C@H]2C(=O)OC(CCCc2ccccc2)CCc2cccnc2)cc(OC)c1OC (stereo partly shown) [Compound 22]
[1]; 1 nM
  neurite outgrowth in cultured sensory neurons (photomicrograph): responding to trophic effects
[1]
  EC50: 0.95 nM

## COc1cc(C(=O)C(=O)N2CCCC[C@H]2C(=O)OC(CCCc2ccccc2)CCCc2ccccn2)cc(OC)c1OC (stereo partly shown) [Compound 23]
[1]
  EC50: 25 nM

## COc1ccc(CCCC(CCCc2ccccc2)OC(=O)[C@@H]2CCCCN2C(=O)C(=O)c2cc(OC)c(OC)c(OC)c2)cc1 (stereo partly shown) [Compound 24]
[1]
  EC50: 0.5 nM

## CC(C)Oc1cccc(C(=O)C(=O)N2CCCC[C@H]2C(=O)OC(CCCc2ccccc2)CCCc2cccnc2)c1 (stereo partly shown) [Compound 25]
[1]
  EC50: 0.3 nM

## O=C(C(=O)N1CCCC[C@H]1C(=O)OCc1ccccc1)c1ccccc1 [Example 1]
[1]
  EC50: 25 to 100 nM

## O=C(C(=O)N1CCCC[C@H]1C(=O)OCCCc1ccccc1)c1ccccc1 [Example 2]
[1]
  EC50: 10 to 20 nM

## COc1ccc(CCCCOC(=O)[C@@H]2CCCCN2C(=O)C(=O)c2ccccc2)cc1 [Example 3]
[1]
  EC50: 0.5 nM

## O=C(C(=O)N1CCCC[C@H]1C(=O)OCCCCc1ccccc1)c1ccccc1 [Example 4]
[1]
  EC50: 25 to 100 nM

## O=C(C(=O)N1CCCC[C@H]1C(=O)OCCc1ccccc1)c1ccccc1 [Example 5]
[1]
  EC50: 25 to 100 nM

## O=C(C(=O)N1CCCC[C@H]1C(=O)OCCCCC1CCCCC1)c1ccccc1 [Example 6]
[1]
  EC50: 10 to 20 nM

## COC(=O)C(=O)N1CCCC[C@H]1C(=O)OCc1ccccc1 [Example 7]
[1]
  EC50: > 10000 nM

## COC(=O)C(=O)N1CCCC[C@H]1C(=O)OCCCCC1CCCCC1 [Example 8]
[1]
  EC50: > 10000 nM

## COC(=O)C(=O)N1CCCC[C@H]1C(=O)OCCCC1CCCCC1 [Example 9]
[1]
  EC50: > 10000 nM

## COC(=O)C(=O)N1CCCC[C@H]1C(=O)OCCCC1CCCC1 [Example 10]
[1]
  EC50: > 10000 nM

## O=C(C(=O)N1CCCC[C@H]1C(=O)OCc1ccccc1)c1ccco1 [Example 11]
[1]
  EC50: 1000 nM

## COc1cc(C(=O)C(=O)N2CCCC[C@H]2C(=O)OCCCCC2CCCCC2)cc(OC)c1OC [Example 12]
[1]
  EC50: 0.031 nM

## COc1cc(C(=O)C(=O)N2CCCC[C@H]2C(=O)OCc2cccc(Oc3ccccc3)c2)cc(OC)c1OC [Example 13]
[1]
  EC50: 0.18 nM

## COc1cc(C(=O)C(=O)N2CCCC[C@H]2C(=O)OCCCCc2ccccc2)cc(OC)c1OC [Example 14]
[1]
  EC50: 1 to 5 nM

## COc1cc(C(=O)C(=O)N2CCCC[C@H]2C(=O)OCCCc2c[nH]c3ccccc23)cc(OC)c1OC [Example 15]
[1]; 300 pM
  neurite outgrowth in cultured sensory neurons (photomicrograph): stimulation of neurite outgrowth
[1]
  EC50: 0.055 nM

## COc1ccc(CCCCOC(=O)[C@@H]2CCCCN2C(=O)C(=O)c2cc(OC)c(OC)c(OC)c2)cc1 [Example 16]
[1]
  EC50: 0.03 nM

## C=CC[C@@H]1/C=C(\C)C[C@H](C)C[C@H](OC)[C@H]2O[C@@](O)(C(=O)C(=O)N3CCCC[C@H]3C(=O)O[C@H](/C(C)=C/[C@@H]3CC[C@@H](O)[C@H](OC)C3)[C@H](C)[C@@H](O)CC1=O)[C@H](C)C[C@@H]2OC [FK506]
Rat dorsal root ganglia; no NGF
  neurotrophic effects in the absence of NGF: neurotrophic effects were observed
Rat dorsal root ganglia
  lowest concentration with significant augmentation in nerve outgrowth: 1 picomolar
PC12 cells
  stimulation of neurite outgrowth: stimulate neurite out growth in PC12 cells
[2]
  stimulation of neurite outgrowth: stimulate neurite out growth in PC12 cells and sensory neurons
Facial nerve injury
  nerve regeneration following facial nerve injury: stimulate nerve regeneration following facial nerve injury
Sciatic nerve lesions
  functional recovery in animals with sciatic nerve lesions: functional recovery in animals with sciatic nerve lesions
[3]
  phosphorylation of GAP43: augments the phosphorylation

## CO[C@H]1C[C@@H]2CC[C@@H](C)[C@@](O)(O2)C(=O)C(=O)N2CCCC[C@H]2C(=O)O[C@H]([C@H](C)C[C@@H]2CC[C@@H](O)[C@H](OC)C2)CC(=O)[C@H](C)/C=C(\C)[C@@H](O)[C@@H](OC)C(=O)[C@H](C)C[C@H](C)/C=C/C=C/C=C/1C [rapamycin]
PC12 cells
  stimulation of neurite outgrowth: stimulate neurite out growth in PC12 cells
[2]
  stimulation of neurite outgrowth: stimulate neurite out growth in PC12 cells and sensory neurons
